Columns and labels:
ICR mice = assay: Acute toxicity test; format: in vivo; parameters: Lethality: unit not given here; conditions: for Lethality: 10080 min
How it was run: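 Single i.p. administration to ICR mice (7 weeks old, both sexes, n=6/group); appearance and mortality logged over 7 days, dead animals autopsied for gross pathology.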

[1] = system: murine leukemia L1210 cells; assay: Growth inhibition test on cultured murine leukemia L1210 cells; format: cell-based; conditions: 48 hours, 37° C., Trypan blue viability
How it was run: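 Read-out is Trypan blue (0.17%) viability versus compound-free controls. Cells, 1×10^5, were cultured 48 h at 37° C under 5% CO2 in RPMI 1640/10% FCS containing various compound concentrations.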

[2] = Test for water solubility; format: physicochemical; conditions: water
From the text: 3. Test for water solubility
A standard plot of UV absorbance(220 nm) vs. concentration was made; and employed to determine water-solubility.
The mixture was then passed through a 0.45 micron disposable membrane filter before dilution and UV measurement.

murine leukemia L1210 = assay: Antitumor activity test on murine leukemia L1210 in vivo; parameters: species or system male BDF1 mice; conditions: days 1, 5, 9
How it was run: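 Male BDF1 mice (6 weeks, 21±3 g; n=7) received 1×10^6 leukemia cells into the peritoneum on day 0, then test compound suspended or dissolved in 0.5% CMC i.p. on days 1, 5, 9. Activity expressed as T/C %, mean survival treated versus 0.5% CMC-injected controls.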

Structure (SMILES): O=C1[O][Pt-2]2([NH2+]CC3OCOC3C[NH2+]2)[O]C(=O)C12CCC2 [Example 20, cis-cyclobutane-1,1-dicarboxylato [(4R,5R)-4,5-bis(aminomethyl)-1,3-dioxolane]platinum (II)]
- Number of dead mice for 7 days (ICR mice; female, 94 mg/kg i.p.): 0/6
- Number of dead mice, 1st day (ICR mice; female, 94 mg/kg i.p.): 0/6
- Number of dead mice for 7 days (ICR mice; female, 123 mg/kg i.p.): 2/6
- Number of dead mice, 1st day (ICR mice; female, 123 mg/kg i.p.): 0/6
- Number of dead mice, 4th day (ICR mice; female, 123 mg/kg i.p.): 2/6
- Lethality (ICR mice; female, 123 mg/kg i.p.): 33.3
- Number of dead mice for 7 days (ICR mice; female, 160 mg/kg i.p.): 4/6
- Number of dead mice, 1st day (ICR mice; female, 160 mg/kg i.p.): 0/6
- Number of dead mice, 4th day (ICR mice; female, 160 mg/kg i.p.): 2/6
- Number of dead mice, 5th day (ICR mice; female, 160 mg/kg i.p.): 2/4
- Lethality (ICR mice; female, 160 mg/kg i.p.): 66.7
- Number of dead mice for 7 days (ICR mice; female, 208 mg/kg i.p.): 6/6
- Number of dead mice, 1st day (ICR mice; female, 208 mg/kg i.p.): 0/6
- Number of dead mice, 3rd day (ICR mice; female, 208 mg/kg i.p.): 1/6
- Number of dead mice, 4th day (ICR mice; female, 208 mg/kg i.p.): 5/5
- Lethality (ICR mice; female, 208 mg/kg i.p.): 100.0
- Number of dead mice for 7 days (ICR mice; female, 270 mg/kg i.p.): 6/6
- Number of dead mice, 1st day (ICR mice; female, 270 mg/kg i.p.): 0/6
- Number of dead mice, 2nd day (ICR mice; female, 270 mg/kg i.p.): 4/6
- Number of dead mice, 3rd day (ICR mice; female, 270 mg/kg i.p.): 2/2
- Lethality (ICR mice; female, 270 mg/kg i.p.): 100.0
- Number of dead mice for 7 days (ICR mice; male, 94 mg/kg i.p.): 0/6
- Number of dead mice, 1st day (ICR mice; male, 94 mg/kg i.p.): 0/6
- Number of dead mice for 7 days (ICR mice; male, 123 mg/kg i.p.): 2/6
- Number of dead mice, 1st day (ICR mice; male, 123 mg/kg i.p.): 1/6
- Number of dead mice, 5th day (ICR mice; male, 123 mg/kg i.p.): 1/5
- Lethality (ICR mice; male, 123 mg/kg i.p.): 33.3
- Number of dead mice for 7 days (ICR mice; male, 160 mg/kg i.p.): 5/6
- Number of dead mice, 1st day (ICR mice; male, 160 mg/kg i.p.): 0/6
- Number of dead mice, 4th day (ICR mice; male, 160 mg/kg i.p.): 2/6
- Number of dead mice, 5th day (ICR mice; male, 160 mg/kg i.p.): 1/4
- Number of dead mice, 6th day (ICR mice; male, 160 mg/kg i.p.): 2/3
- Lethality (ICR mice; male, 160 mg/kg i.p.): 83.3
- Number of dead mice for 7 days (ICR mice; male, 208 mg/kg i.p.): 6/6
- Number of dead mice, 1st day (ICR mice; male, 208 mg/kg i.p.): 0/6
- Number of dead mice, 4th day (ICR mice; male, 208 mg/kg i.p.): 6/6
- Lethality (ICR mice; male, 208 mg/kg i.p.): 100.0
- Number of dead mice for 7 days (ICR mice; male, 270 mg/kg i.p.): 6/6
- Number of dead mice, 1st day (ICR mice; male, 270 mg/kg i.p.): 0/6
- Number of dead mice, 2nd day (ICR mice; male, 270 mg/kg i.p.): 4/6
- Number of dead mice, 3rd day (ICR mice; male, 270 mg/kg i.p.): 2/2
- Lethality (ICR mice; male, 270 mg/kg i.p.): 100.0
- IC50 (concentration required for 50% inhibition of growth) [1]: 1.28 µg/mL
- Solubility in water [2]: 3.1 mg/mL
- T/C (%) (murine leukemia L1210; 6.2 mg/kg i.p.): 122%
- T/C (%) (murine leukemia L1210; 12.5 mg/kg i.p.): 187%
- T/C (%) (murine leukemia L1210; 25 mg/kg i.p.): 137%
- T/C (%) (murine leukemia L1210; 50 mg/kg i.p.): 193%
- T/C (%) (murine leukemia L1210; 100 mg/kg i.p.): 271%

Structure (SMILES): CC1OC2C[NH2+][Pt-2]3([NH2+]CC2O1)[O]C(=O)C1(CCC1)C(=O)[O]3 [Example 22, cis-cyclobutane-1,1-dicarboxylato[(4R,5R)-4,5-bis(aminomethyl)-2-methyl-1,3-dioxolane]platinum(II)]
- Number of dead mice for 7 days (ICR mice; female, 94 mg/kg i.p.): 0/6
- Number of dead mice, 1st day (ICR mice; female, 94 mg/kg i.p.): 0/6
- Number of dead mice for 7 days (ICR mice; female, 123 mg/kg i.p.): 1/6
- Number of dead mice, 1st day (ICR mice; female, 123 mg/kg i.p.): 0/6
- Number of dead mice, 4th day (ICR mice; female, 123 mg/kg i.p.): 1/6
- Lethality (ICR mice; female, 123 mg/kg i.p.): 16.7
- Number of dead mice for 7 days (ICR mice; female, 160 mg/kg i.p.): 3/6
- Number of dead mice, 1st day (ICR mice; female, 160 mg/kg i.p.): 0/6
- Number of dead mice, 4th day (ICR mice; female, 160 mg/kg i.p.): 2/6
- Number of dead mice, 5th day (ICR mice; female, 160 mg/kg i.p.): 1/4
- Lethality (ICR mice; female, 160 mg/kg i.p.): 50.0
- Number of dead mice for 7 days (ICR mice; female, 208 mg/kg i.p.): 5/6
- Number of dead mice, 1st day (ICR mice; female, 208 mg/kg i.p.): 0/6
- Number of dead mice, 3rd day (ICR mice; female, 208 mg/kg i.p.): 1/6
- Number of dead mice, 4th day (ICR mice; female, 208 mg/kg i.p.): 4/5
- Lethality (ICR mice; female, 208 mg/kg i.p.): 83.3
- Number of dead mice for 7 days (ICR mice; female, 270 mg/kg i.p.): 6/6
- Number of dead mice, 1st day (ICR mice; female, 270 mg/kg i.p.): 0/6
- Number of dead mice, 2nd day (ICR mice; female, 270 mg/kg i.p.): 4/6
- Number of dead mice, 3rd day (ICR mice; female, 270 mg/kg i.p.): 2/2
- Lethality (ICR mice; female, 270 mg/kg i.p.): 100.0
- Number of dead mice for 7 days (ICR mice; male, 94 mg/kg i.p.): 0/6
- Number of dead mice, 1st day (ICR mice; male, 94 mg/kg i.p.): 0/6
- Number of dead mice for 7 days (ICR mice; male, 123 mg/kg i.p.): 0/6
- Number of dead mice, 1st day (ICR mice; male, 123 mg/kg i.p.): 0/6
- Number of dead mice for 7 days (ICR mice; male, 160 mg/kg i.p.): 4/6
- Number of dead mice, 1st day (ICR mice; male, 160 mg/kg i.p.): 1/6
- Number of dead mice, 4th day (ICR mice; male, 160 mg/kg i.p.): 1/5
- Number of dead mice, 5th day (ICR mice; male, 160 mg/kg i.p.): 1/4
- Number of dead mice, 6th day (ICR mice; male, 160 mg/kg i.p.): 1/3
- Lethality (ICR mice; male, 160 mg/kg i.p.): 66.7
- Number of dead mice for 7 days (ICR mice; male, 208 mg/kg i.p.): 5/6
- Number of dead mice, 1st day (ICR mice; male, 208 mg/kg i.p.): 0/6
- Number of dead mice, 4th day (ICR mice; male, 208 mg/kg i.p.): 4/6
- Number of dead mice, 5th day (ICR mice; male, 208 mg/kg i.p.): 1/2
- Lethality (ICR mice; male, 208 mg/kg i.p.): 83.3
- Number of dead mice for 7 days (ICR mice; male, 270 mg/kg i.p.): 6/6
- Number of dead mice, 1st day (ICR mice; male, 270 mg/kg i.p.): 0/6
- Number of dead mice, 2nd day (ICR mice; male, 270 mg/kg i.p.): 2/6
- Number of dead mice, 3rd day (ICR mice; male, 270 mg/kg i.p.): 4/4
- Lethality (ICR mice; male, 270 mg/kg i.p.): 100.0
- IC50 (concentration required for 50% inhibition of growth) [1]: 0.90 µg/mL
- Solubility in water [2]: 24.9 mg/mL
- T/C (%) (murine leukemia L1210; 6.2 mg/kg i.p.): 125%
- T/C (%) (murine leukemia L1210; 12.5 mg/kg i.p.): 129%
- T/C (%) (murine leukemia L1210; 25 mg/kg i.p.): 247%
- T/C (%) (murine leukemia L1210; 50 mg/kg i.p.): 262%
- T/C (%) (murine leukemia L1210; 100 mg/kg i.p.): 382%

From patent publication US5395947A, “Platinum(II) complex and processes for preparing the same” (Sunkyong Industries, Ltd., priority 1991, dated 1995)
